Source: PubChem BioAssay AID1963974 (Molecular Pharmacology Branch, DTP, NCI, 2024)
Where “and” joins values, the source holds several entries; their conditions need not be identical. Identical values can stand only once.

Tested on: 648629-189-R-J1-PDC spheroids with HUVEC/MSC, viability
Experiment: Anticancer human tumor 648629-189-R-J1-PDC patient-derived bladder carcinoma cell line growth inhibition [PI3K]
Details: for viability, T/C: stronger effect = lower value
Method in brief: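 Stroma-containing spheroids: tumor line, pooled-donor HUVEC, hMSC. Treatments: targeted agents with PI3K inhibitors. Dosing: clinically relevant, half-log spacing, 10 microM ceiling without known Cmax. Read-out: cell viability.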

[1] = curve of first compound, second compound 0.0316 µM
[2] = curve of first compound, second compound 0.1 µM
[3] = curve of first compound, second compound 0.316 µM
[4] = curve of first compound, second compound 1 µM
[5] = second compound 0.0316 µM, first compound 0.0316 µM
[6] = second compound 0.0316 µM, first compound 0.1 µM
[7] = second compound 0.0316 µM, first compound 0.316 µM
[8] = second compound 0.0316 µM, first compound 1 µM
[9] = second compound 0.0316 µM, first compound 3.16 µM
[10] = second compound 0.0316 µM, first compound 10 µM
[11] = second compound 0.1 µM, first compound 0.0316 µM
[12] = second compound 0.1 µM, first compound 0.1 µM
[13] = second compound 0.1 µM, first compound 0.316 µM
[14] = second compound 0.1 µM, first compound 1 µM
[15] = second compound 0.1 µM, first compound 3.16 µM
[16] = second compound 0.1 µM, first compound 10 µM
[17] = second compound 0.316 µM, first compound 0.0316 µM
[18] = second compound 0.316 µM, first compound 0.1 µM
[19] = second compound 0.316 µM, first compound 0.316 µM
[20] = second compound 0.316 µM, first compound 1 µM
[21] = second compound 0.316 µM, first compound 3.16 µM
[22] = second compound 0.316 µM, first compound 10 µM
[23] = second compound 1 µM, first compound 0.0316 µM
[24] = second compound 1 µM, first compound 0.1 µM
[25] = second compound 1 µM, first compound 0.316 µM
[26] = second compound 1 µM, first compound 1 µM
[27] = second compound 1 µM, first compound 3.16 µM
[28] = second compound 1 µM, first compound 10 µM
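Also: spheroids exposed to agents for seven days before reading.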
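For viability, T/C in this document: percent of vehicle control luminescence where 100% = DMSO treated spheroids.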

Cn1ncc(Cl)c1-c1cc(C(=O)NC(CN)Cc2cccc(F)c2)sc1Cl (stereo not drawn) + CC(Nc1ccc2c(c1)OCCn1cc(N3C(=O)OCC3C(F)F)nc1-2)C(N)=O
IC50 (curve of first compound, second compound 0.00316 µM): > 10 µM
IC50 (curve of first compound, second compound 0.01 µM): 0.766 µM
IC50 [1]: > 10 µM
IC50 [2]: 0.27 µM
IC50 [3]: 0.209 µM
IC50 [4]: 0.162 µM
viability, T/C (second compound 0.00316 µM, first compound 0.0316 µM): 97%
viability, T/C (second compound 0.00316 µM, first compound 0.1 µM): 87.4%
viability, T/C (second compound 0.00316 µM, first compound 0.316 µM): 50.5%
viability, T/C (second compound 0.00316 µM, first compound 1 µM): 30.1%
viability, T/C (second compound 0.00316 µM, first compound 3.16 µM): 20.2%
viability, T/C (second compound 0.00316 µM, first compound 10 µM): 102%
viability, T/C (second compound 0.01 µM, first compound 0.0316 µM): 88.8%
viability, T/C (second compound 0.01 µM, first compound 0.1 µM): 91%
viability, T/C (second compound 0.01 µM, first compound 0.316 µM): 56.1%
viability, T/C (second compound 0.01 µM, first compound 1 µM): 32.6%
viability, T/C (second compound 0.01 µM, first compound 3.16 µM): 17.5%
viability, T/C (second compound 0.01 µM, first compound 10 µM): 94.3%
viability, T/C [5]: 98%
viability, T/C [6]: 80.4%
viability, T/C [7]: 55.1%
viability, T/C [8]: 30.8%
viability, T/C [9]: 19.4%
viability, T/C [10]: 99.7%
viability, T/C [11]: 85.3%
viability, T/C [12]: 72.9%
viability, T/C [13]: 47.4%
viability, T/C [14]: 27.5%
viability, T/C [15]: 14.8%
viability, T/C [16]: 89%
viability, T/C [17]: 79.9%
viability, T/C [18]: 61.5%
viability, T/C [19]: 47.5%
viability, T/C [20]: 24%
viability, T/C [21]: 15.7%
viability, T/C [22]: 72.2%
viability, T/C [23]: 56.2%
viability, T/C [24]: 62.1%
viability, T/C [25]: 37.3%
viability, T/C [26]: 22.6%
viability, T/C [27]: 13.2%
viability, T/C [28]: 67%

C=CC(=O)N1CCN(c2nc(=O)n(-c3c(C)ccnc3C(C)C)c3nc(-c4c(O)cccc4F)c(F)cc23)C(C)C1 (stereo not drawn)
viability, T/C (compound 0.0316 µM): 112% [middle of 4 runs]
viability, T/C (compound 0.1 µM): 103% (2×) and 102% and 99.5%
viability, T/C (compound 0.316 µM): 110% and 107% (2×) and 100%
viability, T/C (compound 1 µM): 109% [middle of 4 runs]
viability, T/C (compound 3.16 µM): 105% [middle of 4 runs]
viability, T/C (compound 10 µM): 96% [middle of 4 runs]
IC50 (curve of compound): > 10 µM

CCCS(=O)(=O)Nc1ccc(F)c(C(=O)c2c[nH]c3ncc(-c4ccc(Cl)cc4)cc23)c1F + CC(Nc1ncnc2nc[nH]c12)c1cc2cccc(Cl)c2c(=O)n1-c1ccccc1
IC50 [1]: 5.23 µM
IC50 [2]: 5.59 µM
IC50 [3]: 5.27 µM
IC50 [4]: 5.26 µM
IC50 (curve of first compound, second compound 3.16 µM): 4.28 µM
IC50 (curve of first compound, second compound 10 µM): 3.88 µM
viability, T/C [5]: 99.8%
viability, T/C [6]: 95.1%
viability, T/C [7]: 120%
viability, T/C [8]: 98.3%
viability, T/C [9]: 88.2%
viability, T/C [10]: 0.98%
viability, T/C [11]: 103%
viability, T/C [12]: 96.7%
viability, T/C [13]: 91.8%
viability, T/C [14]: 98.9%
viability, T/C [15]: 100%
viability, T/C [16]: 0.84%
viability, T/C [17]: 109%
viability, T/C [18]: 108%
viability, T/C [19]: 99.2%
viability, T/C [20]: 109%
viability, T/C [21]: 89.4%
viability, T/C [22]: 0.43%
viability, T/C [23]: 101%
viability, T/C [24]: 88.7%
viability, T/C [25]: 96.2%
viability, T/C [26]: 99.2%
viability, T/C [27]: 89.1%
viability, T/C [28]: 0.46%
viability, T/C (second compound 3.16 µM, first compound 0.0316 µM): 91.1%
viability, T/C (second compound 3.16 µM, first compound 0.1 µM): 103%
viability, T/C (second compound 3.16 µM, first compound 0.316 µM): 92.2%
viability, T/C (second compound 3.16 µM, first compound 1 µM): 89.5%
viability, T/C (second compound 3.16 µM, first compound 3.16 µM): 67.6%
viability, T/C (second compound 3.16 µM, first compound 10 µM): 0.83%
viability, T/C (second compound 10 µM, first compound 0.0316 µM): 86.9%
viability, T/C (second compound 10 µM, first compound 0.1 µM): 77.6%
viability, T/C (second compound 10 µM, first compound 0.316 µM): 81.9%
viability, T/C (second compound 10 µM, first compound 1 µM): 80.2%
viability, T/C (second compound 10 µM, first compound 3.16 µM): 60.6%
viability, T/C (second compound 10 µM, first compound 10 µM): 1.35%

CC(C)n1nc(-c2ccc3oc(N)nc3c2)c2c(N)ncnc21
viability, T/C (compound 0.000316 µM): 111% [middle of 4 runs]
viability, T/C (compound 0.001 µM): 102% [middle of 4 runs]
viability, T/C (compound 0.00316 µM): 97.9% [middle of 4 runs]
viability, T/C (compound 0.01 µM): 89.7% [middle of 4 runs]
viability, T/C (compound 0.0316 µM): 78.6% [middle of 4 runs]
viability, T/C (compound 0.1 µM): 34% [middle of 4 runs]
IC50 (curve of compound): 63.4 nM [middle of 4 runs]
